Where no end group is shown, it is not given here. The star is where a group is joined. For = O=C*
Experiments:
ERα = ERα protein expression by Western blot in stimulated 4T1 cells; type: cell-based, mouse; conditions: stimulation for 24 and 48 hours
Protocol: Breast cancer cells were grown in 6 well plates, and stimulated with recombinant Wnt-5a protein (rW5a), the Wnt-5a derived Foxy-5 peptide (F5), recombinant Wnt-3a protein (rW3a), or a formylated random hexapeptide (Rdm) for 24 or 48 h. Following treatment cells were lysed and subjected to SDS-PAGE, transferred to nitrocellulose membranes and blotted for ERα expression. A: MDA-MB-231 cells stimulated with recombinant Wnt-5a, Foxy-5, Wnt-3a, Rdm. B: MDA-MB-468 cells stimulated with recombinant Wnt-5a or Foxy-5. C: 4T1 cells stimulated with recombinant Wnt-5a or Foxy-5. Positive controls (Pos) were included in order to confirm the correct band size for ERα. Two different positive controls were used: T47D cell lysates known to express ERα and MDA-MB-231 cells transiently transfected with a full length ERα plasmid, resulting in extremely high ERα expression (top row, right panel, third row, right panel). […]
Cells were lysed in Triton lysis buffer (50 mM Tris (pH7.5), 1% Triton x-100, 140 mM NaCl, 0.5 mM EDTA, 0.5 MgCl2, 10 mM NaF) with the addition of fresh leupeptin (1 μg/ml), Pefabloc (2 mM), aprotinin (20 μg/ml) and Na3VO4 (4 mM). […] Scanning and densitometry was performed using a Bio-Rad (Hercules Calif.) GS-800 densitometer with Quantity One software. […]

ERα promoter = assay: Bisulfite genomic sequencing of the ERα promoter in MDA-MB-231 cells; type: cell-based, human; conditions: 48 hours, rWnt-5a 0.6 μg/ml, Foxy-5 100 μM
Protocol: MDA-MB-231 cells were grown in normal media and either left untreated, or stimulated with rWnt-5a protein (rWnt-5a, 0.6 μg/ml)) or the Wnt-5a derived Foxy-5 peptide (F5, 100 μM), for 48 hours. MCF-7 cells were grown for the same amount of time, and were left untreated. DNA was extracted from each sample and subjected to bisulfite modification. Bisulfite treated DNA was subjected to bisulfite genomic sequencing (BGS) of the ERα promoter using nested PCR with primers for the ERα promoter region. PCR products were cloned and 10 random clones sequenced. Filled (black) circles represent methylation at a given cytosine, empty (white) circles represent either unmethyllated cytosine or cytosines demethylated following rWnt-5a or Foxy-5 treatment. The numbers represent the position of CpG dinculeotides relative to the transcription start site (+1). The TATA box is located between positions −17 and +13.
DNA was extracted from cells according to standard procedures. 1 μg of DNA was then bisulfite treated using the EpiTect Bisulfite Kit (Qiagen) and amplified via nested PCR with primers for the ERα promoter region. PCR products were cloned using the TOPO TA cloning kit (Invitrogen). 10 random clones were sequenced using an AB13730 DNA analyzer (Applied Biosystems).

formyl-MDGCEL (For-MDGCEL; listed as Homo sapiens) [Foxy-5]
ERα levels (ERα): upregulated | methylation of the ERα CpG island (ERα promoter): demethylated

B1: recombinant Wnt-5a: recombinant Wnt-5a protein (R&D Systems) (protein, UniProt P41221 62-380, looked up)
Protein Wnt-5a: IIGAQPLCSQLAGLSQGQKKLCHLYQDHMQYIGEGAKTGIKECQYQFRHRRWNCSTVDNTSVFGRVMQIGSRETAFTYAVSAAGVVNAMSRACREGELSTCGCSRAARPKDLPRDWLWGGCGDNIDYGYRFAKEFVDARERERIHAKGSYESARILMNLHNNEAGRRTVYNLADVACKCHGVSGSCSLKTCWLQLADFRKVGDALKEKYDSAAAMRLNSRGKLVQVNSRFNSPTTQDLVYIDPSPDYCVRNESTGSLGTQGRLCNKTSEGMDGCELMCCGRGYDQFKTVQTERCHCKFHWCCYVKCKKCTEIVDQFVCK
ERα levels (ERα): upregulated | methylation of the ERα CpG island (ERα promoter): demethylated
